Assays:
Assay type in all cases: cell-based
[1] = biological target: EP2 subtype of the human PGE2 receptor (Homo sapiens, UniProt P43116); assay: cAMP antagonism test on the human EP2 receptor (HTRF cAMP detection); settings: hEP2 receptor, read-out: Antagonism hEP2 IC50
How it was run: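 Read-out is a competitive HTRF for cAMP: lysate cAMP displaces cAMP-d2 from Eu cryptate-labelled antibody, and antagonism raises the 665/620 nm ratio. Compound (0.8 nM–16.5 μM) added to EP2 cells 20 min at RT before 60 min PGE2 challenge (3× stock 1.5 nM) with IBMX, followed by 20 min lysis.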

[2] = biological target: EP4 subtype of the human PGE2 receptor (Homo sapiens, UniProt P35408); assay: cAMP antagonism test on the human EP4 receptor (HTRF cAMP detection); settings: selectivity towards hEP4, IC50 measured by cAMP antagonism test
EP4 subtype of the human PGE2 receptor, sequence (P35408 whole entry): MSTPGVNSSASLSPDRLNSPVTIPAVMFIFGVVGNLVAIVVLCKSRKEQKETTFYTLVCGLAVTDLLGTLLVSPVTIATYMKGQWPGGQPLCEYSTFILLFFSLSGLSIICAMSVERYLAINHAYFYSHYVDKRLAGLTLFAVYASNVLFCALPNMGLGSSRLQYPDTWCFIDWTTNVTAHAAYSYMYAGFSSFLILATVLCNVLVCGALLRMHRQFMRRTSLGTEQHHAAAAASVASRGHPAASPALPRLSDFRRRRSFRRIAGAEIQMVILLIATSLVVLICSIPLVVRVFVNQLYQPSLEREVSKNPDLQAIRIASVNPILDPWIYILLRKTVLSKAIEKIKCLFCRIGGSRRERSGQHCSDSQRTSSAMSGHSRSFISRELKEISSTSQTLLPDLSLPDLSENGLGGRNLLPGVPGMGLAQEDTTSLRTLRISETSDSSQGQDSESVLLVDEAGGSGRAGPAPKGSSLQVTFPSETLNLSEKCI
How it was run: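 Competitive HTRF cAMP read-out (cAMP-d2 vs Eu-cryptate anti-cAMP antibody, 665/620 nm ratio) on lysed human EP4 cells. Compound (0.8 nM–16.5 μM) applied 20 min at RT before 60 min PGE2 challenge (3× solution 0.3 nM, IBMX present); 20 min lysis precedes reading.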

[3] = biological target: T1, human PGD receptor (Homo sapiens, UniProt Q13258); assay: cAMP antagonism test on the human prostaglandin D receptor (HTRF cAMP detection); settings: selectivity towards hDP, IC50 measured by cAMP antagonism test
T1 sequence (Q13258 1-359): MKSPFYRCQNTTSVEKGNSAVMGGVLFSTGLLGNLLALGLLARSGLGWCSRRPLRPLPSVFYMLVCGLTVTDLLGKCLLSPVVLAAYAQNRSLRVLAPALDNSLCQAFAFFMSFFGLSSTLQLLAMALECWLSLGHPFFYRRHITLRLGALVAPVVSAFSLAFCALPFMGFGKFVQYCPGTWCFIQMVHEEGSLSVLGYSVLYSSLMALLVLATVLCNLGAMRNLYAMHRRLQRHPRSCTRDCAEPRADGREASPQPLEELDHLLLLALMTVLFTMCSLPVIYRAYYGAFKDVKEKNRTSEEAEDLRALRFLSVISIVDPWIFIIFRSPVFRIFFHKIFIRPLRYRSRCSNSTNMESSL
How it was run: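 HTRF competition read-out (665/620 nm ratio ×10000), where higher FRET means less cAMP, i.e. antagonism. Compounds (0.8 nM–16.5 μM) were preincubated 20 min at RT with cells and cAMP-d2, PGD2 (3× solution, 6 nM) in IBMX-containing PBS added for 30 min at RT, then cells lysed 20 min.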

EP2 subtype of the human PGE2 receptor, sequence (P43116 whole entry): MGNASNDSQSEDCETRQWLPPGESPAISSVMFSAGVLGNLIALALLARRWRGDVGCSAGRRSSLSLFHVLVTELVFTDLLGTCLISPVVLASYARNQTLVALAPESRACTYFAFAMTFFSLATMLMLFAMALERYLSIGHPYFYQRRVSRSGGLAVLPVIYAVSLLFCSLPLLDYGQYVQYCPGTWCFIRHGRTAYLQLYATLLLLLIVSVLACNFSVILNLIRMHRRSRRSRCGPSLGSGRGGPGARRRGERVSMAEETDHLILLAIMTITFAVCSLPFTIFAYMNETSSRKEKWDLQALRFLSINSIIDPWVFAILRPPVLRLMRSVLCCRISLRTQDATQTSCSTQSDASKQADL

IC50 [1] [µM] | Selectivity hEP2/hEP4 [2] | Selectivity hEP2/hDP [3] | SMILES
0.0317 | xxx (xxx > 100) | xxx (xxx > 100) | Cc1cc2nn(CC3CCN(C(=O)c4ccc(Oc5ccc(F)cc5)cc4)CC3)cc2cc1C(=O)NCCN1CCOCC1 [Example 78, 2-({1-[4-(4-fluoro-phenoxy)benzoyl]-piperidin-4-yl}-methyl)-6-methyl-N-(2-morpholinoethyl)-2H-indazol-5-carboxamide]
0.00307 | xxx (xxx > 100) | xxx (xxx > 100) | COCCNC(=O)c1ccc2nn(CC3CCN(C(=O)c4ccc(-c5ccc(OC)cc5C)cc4)CC3)cc2c1C [Example 370, N-(2-methoxyethyl)-2-({1-[(4′-methoxy-2′-methylbiphenyl-4-yl)carbonyl]-piperidin-4-yl}methyl)-4-methyl-2H-indazol-5-carboxamide]
0.0824 | xxx (xxx > 100) | xxx (xxx > 100) | CCc1c(C(=O)NCCOC)ccc2nn(CC3CCN(C(=O)c4ccc(OC(F)(F)F)cc4)CC3)cc12 [Example 213, 4-Ethyl-N-(2-methoxyethyl)-2-({1-[4-(trifluoromethoxy)benzoyl]piperidin-4-yl}methyl)-2H-indazol-5-carboxamide]
0.0132 | xxx (xxx > 100) | xxx (xxx > 100) | COCCNC(=O)c1ccc2nn(CC3CCN(C(=O)c4ccc(-c5cncc(C(F)(F)F)c5)cc4)CC3)cc2c1C [Example 387, N-(2-methoxyethyl)-4-methyl-2-[(1-{4-[5-(trifluoromethyl)pyridin-3-yl]-benzoyl}piperidin-4-yl)methyl]-2H-indazol-5-carboxamide]
0.00318 | xxx (xxx > 100) | xxx (xxx > 100) | COCCNC(=O)c1ccc2nn(CC3CCN(C(=O)c4ccc(-c5ccccc5C)cc4)CC3)cc2c1C [Example 50, N-(2-methoxyethyl)-4-methyl-2-({1-[(2′-methylbiphenyl-4-yl)carbonyl]piperidin-4-yl}methyl)-2H-indazol-5-carboxamide]
0.168 | xx (xx: 10-100) | xx (xx: 10-100) | Cc1c(C(=O)NCCCO)ccc2nn(CC3CCN(C(=O)c4ccc(Cl)cc4)CC3)cc12 [Example 253, 2-{[1-(4-chlorobenzoyl)piperidin-4-yl]methyl}-N-(3-hydroxypropyl)-4-methyl-2H-indazol-5-carboxamide]
0.0798 | xxx (xxx > 100) | xxx (xxx > 100) | Cc1c(C(=O)NCC(F)(F)F)ccc2nn(CC3CCN(C(=O)c4cnc(-c5ccccc5)o4)CC3)cc12 [Example 300, 4-methyl-2-({1-[(2-phenyloxazol-5-yl)carbonyl]piperidin-4-yl}methyl)-N-(2,2,2-trifluoroethyl)-2H-indazol-5-carboxamide]
1.5 | xx (xx: 10-100) | xx (xx: 10-100) | Cc1c(C(=O)NCCN2CCOCC2)ccc2nn(CC3CCN(C(=O)c4cccc(OC(F)(F)F)c4)CC3)cc12 [Example 61, 4-methyl-N-(2-morpholinoethyl)-2-({1-[3-(trifluoromethoxy)benzoyl]piperidin-4-yl}methyl)-2H-indazol-5-carboxamide]
0.0181 | xxx (xxx > 100) | xxx (xxx > 100) | COCCNC(=O)c1ccc2nn(CC3CCN(C(=O)c4cnc(-c5ccccc5)s4)CC3)cc2c1C [Example 337, N-(2-methoxyethyl)-4-methyl-2-({1-[(2-phenylthiazol-5-yl)carbonyl]piperidin-4-yl}methyl)-2H-indazol-5-carboxamide]
0.0409 | xxx (xxx > 100) | xxx (xxx > 100) | Cc1cc2nn(CC3CN(C(=O)c4ccc(OC(F)(F)F)cc4)C3)cc2cc1C(=O)NCCSC(F)(F)F [Example 194, 6-methyl-2-({1-[4-(trifluoromethoxy)benzoyl]azetidin-3-yl}methyl)-N-{2-[(trifluoromethyl)sulphanyl]ethyl}-2H-indazol-5-carboxamide]
0.00888 | xxx (xxx > 100) | xxx (xxx > 100) | COCCNC(=O)c1ccc2nn(CC3CCN(C(=O)c4nc5ccccc5s4)CC3)cc2c1C [Example 348, 2-{[1-(benzothiazol-2-ylcarbonyl)piperidin-4-yl]methyl}-N-(2-methoxyethyl)-4-methyl-2H-indazol-5-carboxamide]
0.00931 | xxx (xxx > 100) | xxx (xxx > 100) | COCCNC(=O)c1ccc2nn(CC3CCN(C(=O)c4cc5ccccc5n4C)CC3)cc2c1C [Example 29, N-(2-methoxyethyl)-4-methyl-2-({1-[(1-methyl-1H-indol-2-yl)carbonyl]-piperidin-4-yl}methyl)-2H-indazol-5-carboxamide]
0.335 | xx (xx: 10-100) | xx (xx: 10-100) | Cc1c(C(=O)NCC(C)C)ccc2nn(CC3CCN(C(=O)c4ccc(Cl)cc4)CC3)cc12 [Example 243, 2-{[1-(4-chlorobenzoyl)piperidin-4-yl]methyl}-N-isobutyl-4-methyl-2H-indazol-5-carboxamide]
0.226 | xx (xx: 10-100) | xx (xx: 10-100) | CCOc1c(C(=O)NCCOC)ccc2nn(CC3CN(C(=O)c4ccc(Cl)cc4)C3)cc12 [Example 276, 2-{[1-(4-chlorobenzoyl)azetidin-3-yl]methyl}-4-ethoxy-N-(2-methoxyethyl)-2H-indazol-5-carboxamide]
0.0954 | xxx (xxx > 100) | xxx (xxx > 100) | Cc1cc2nn(CC3CCN(C(=O)c4ccc(Cl)cc4)CC3)cc2cc1C(=O)NCCN1CCOCC1 [Example 74, 2-{[1-(4-chlorobenzoyl)piperidin-4-yl]methyl}-6-methyl-N-(2-morpholinoethyl)-2H-indazol-5-carboxamide]
0.0277 | xxx (xxx > 100) | xxx (xxx > 100) | COc1ccc2cc(C(=O)N3CC(Cn4cc5c(C)c(C(=O)NCC(F)(F)F)ccc5n4)C3)n(C)c2c1 [Example 169, 2-({1-[(6-methoxy-1-methyl-1H-indol-2-yl)carbonyl]azetidin-3-yl}methyl)-4-methyl-N-(2,2,2-trifluoroethyl)-2H-indazol-5-carboxamide]
0.0128 | xxx (xxx > 100) | xxx (xxx > 100) | Cc1c(C(=O)NCCOCC(F)(F)F)ccc2nn(CC3CCN(C(=O)c4ccc(-c5ccc(F)cc5)cc4)CC3)cc12 [Example 94, 2-({1-[(4′-fluoro-biphenyl-4-yl)-carbonyl]piperidin-4-yl}methyl)-4-methyl-N-[2-(2,2,2-trifluoroethoxy)-ethyl]-2H-indazol-5-carboxamide]
0.00562 | xxx (xxx > 100) | xxx (xxx > 100) | COCCNC(=O)c1ccc2nn(C[C@H]3CCN(C(=O)c4ccc(Oc5ccc(C(F)(F)F)cc5)cc4)C3)cc2c1C [Example 224, N-(2-methoxyethyl)-4-methyl-2-{[(S)-1-{4-[4-(trifluoromethyl)phenoxy]benzoyl}pyrrolidin-3-yl]methyl}-2H-indazol-5-carboxamide]
0.0861 | xxx (xxx > 100) | xxx (xxx > 100) | COCCNC(=O)c1ccc2nn(CC3CN(C(=O)c4ccc(Br)cc4)C3)cc2c1OC [Example 216, 2-{[1-(4-bromobenzoyl)azetidin-3-yl]methyl}-4-methoxy-N-(2-methoxyethyl)-2H-indazol-5-carboxamide]
0.419 | xx (xx: 10-100) | xx (xx: 10-100) | COC(C)CNC(=O)c1ccc2nn(CC3CN(C(=O)c4ccc(Cl)cc4)C3)cc2c1C (single isomer, unassigned) [Example 139, (R or S)-2-{[1-(4-chlorobenzoyl)azetidin-3-yl]methyl}-N-(2-methoxypropyl)-4-methyl-2H-indazol-5-carboxamide]
0.0172 | xxx (xxx > 100) | xxx (xxx > 100) | COCCNC(=O)c1ccc2nn(CC3CCN(C(=O)c4ccc(C)cc4F)CC3)cc2c1C [Example 9, 2-{[1-(2-fluoro-4-methylbenzoyl)piperidin-4-yl]methyl}-N-(2-methoxyethyl)-4-methyl-2H-indazol-5-carboxamide]

Reference: patent publication US9062041B2 (Bayer Intellectual Property GmbH, priority 2011, dated 2015)
